Each structure is given as a SMILES string. Several values for one entry are separate records, joined by “and”; a condition that tells them apart may be missing. Identical values can stand only once. *1 amine or outer side, *2 acyl side, *3 side chain or, on linkers, in order; H or OH if unused. Where a SMILES comes first, the peptide text is derived from it. [ ]: non-standard residue; d: D form. The star is where a group is joined. Dolaproine = CO[C@@H]([C@@H]1CCCN1)[C@@H](C)C(=O)O; Dil = CC[C@H](C)[C@H](NC)[C@@H](CC(=O)O)OC; PABC = O=C(OCc1ccc(N[*:1])cc1)[*:2]; X1 = C[C@@H](N*)[C@@H](O)c1ccccc1; NMeV = CN[C@H](C(=O)O)C(C)C

Usually IC50 stands for the concentration at which inhibition is half-maximal.

Data set [1] deals with U87MG human malignant glioma cells. The data set is described as follows: In vitro antiproliferative activity, "kiss-and-run" washout experiment (30 min + washout + up to 72 h). It is filed as cell-based. The conditions noted are these: MTT, 30 min treatment, washout, further incubation up to 72 h, 5% serum final. The procedure: (§1) U87MG human malignant glioma, SK-MEL-28 human melanoma, SK-OV-3 human ovarian cancer, and A549 human lung cancer cell lines were purchased from ATCC. The cells were cultured in Dulbecco’s Modified Eagle’s Medium (DMEM; Biosera, Nuaille, France), supplemented with 10% heat-inactivated Fetal Bovine Serum (FBS; Biosera), and with 1% Penicillin/Streptomycin (Biosera). Cells were cultured in sterile T75 flasks with ventilation cap (Sarstedt, Nümbrecht, Germany) at 37 °C in a humidified atmosphere with 5% CO2 in ESCO CelCulture Incubator (ESCO, Friedberg, Germany). Manipulations with the cells were performed in biosafety cabinet (laminar) ESCO Sentinel Gold class II model AC2-4E8 (ESCO).
(§2) After standard trypsinization and harvesting cells by trypsin (Biosera), ethylenediaminetetraacetic acid (EDTA; Biosera) and PBS solution, 6×10^3 cells per well were seeded in serum containing (10%) growth medium to 96-well plates with flat bottom (Eppendorf, Hamburg, Germany), in a 100 μL volume per well, and incubated at 37°C.
(§3) In the wash out experiment, cells were incubated with the compounds (5% serum final) for 30 min, then they were washed out, and additionally incubated in growth medium (5% serum final) up to 72 h. The control wells were treated only with serum free medium (5% serum final).
(§4) For the evaluation of the in vitro antiproliferative activity of compounds, the cell viability was determined by MTT assay (3-(4,5-dimethylthiazol-2-yl)-2,5-diphenyl-tetrazolium bromide) obtained from Duchefa Biochemie (Haarlem, Netherlands).
(§5) 22 µL of MTT solution (5 mg/mL in PBS, 0.5 mg/mL final) was added to each well and after 2 h incubation at 37°C, the supernatant was removed. […] Average background absorbance (DMSO-Ethanol) was subtracted from absorbance values of control and treated wells, and cell viability was determined relative to untreated (control) wells where cell viability was arbitrarily set to 100%. […] The experiments were done in triplicate and each experiment was repeated three times.
(§6) Recently, a new protocol for evaluating the antiproliferative activity and the targeting ability of integrin-ligand based conjugates was developed by the group of Prof. […] In this procedure, which we named “kiss-and-run” experiment, after very short initial contact times (15–30 min) of the toxin with the cells in vitro, the solution is drained, and cells are resuspended in the culture medium for a 72 h incubation. This protocol is aimed at simulating the rapid clearance of the drugs that occurs in vivo in the extracellular tumor environment, thus highlighting the ability of the conjugate to bind the integrin receptor on the cell surface.

In data set [2] the test system is SK-OV-3 human ovarian cancer cells. Described as above. It is filed as cell-based. The conditions noted are these: MTT, 30 min treatment, washout, further incubation up to 72 h, 5% serum final. The procedure:
as §1, §2, §3, §4, §5, §6

Data set [3] concerns A549 human lung cancer cells. Described as above. It is filed as cell-based. The conditions noted are these: MTT, 30 min treatment, washout, further incubation up to 72 h, 5% serum final; αVβ3 low expressing line. As for the experimental part:
as §1, §2, §3, §4, §5, §6

Data set [4] concerns SK-MEL-28 human melanoma cells. The description is as above. It is filed as cell-based. The conditions noted are these: MTT, 30 min treatment, washout, further incubation up to 72 h, 5% serum final. The procedure: as §1, §2, §3, §4, §5, §6
Another data set has as its system SK-MEL-28 cells. The data set is described as follows: In vitro antiproliferative activity in the presence of MMP-2 inhibitor. It is filed as cell-based, human. The conditions noted are these: 16 h pre-incubation with MMP-2 inhibitor 10 µM, then 72 h continuous treatment, 5% serum final; average ± SD, triplicate; read-out: IC50 MMP-2 inhibitor + Treatment 72 h SK-MEL-28 (αVβ3 +). The procedure: as §4
(§7) 22 µL of MTT solution (5 mg/mL in PBS, 0.5 mg/mL final) was added to each well and after 2 h incubation at 37°C, the supernatant was removed. The precipitated purple formazan crystals were dissolved in 100 µL of a 1:1 solution of dimethylsulfoxide (DMSO; Merck, St. Louis, MO, United States): 96% Ethanol (Molar Chemicals Kft., Halásztelek, Hungary) and the absorbance was measured after 15 min at λ = 570 nm by using microplate reader CLARIOstar Plus (BMG Labtech, Ortenberg, Germany). Average background absorbance (DMSO-Ethanol) was subtracted from absorbance values of control and treated wells, and cell viability was determined relative to untreated (control) wells where cell viability was arbitrarily set to 100%. Absorbance values of treated samples were normalized versus untreated control samples and interpolated by nonlinear regression analysis with GraphPad Prism 6 software (GraphPad, La Jolla, San Diego, CA, United States) to generate sigmoidal dose-response curves from which the 50% inhibitory concentration (IC50) values of the compounds were calculated and presented as nanomolar (nM) units. The experiments were done in triplicate and each experiment was repeated three times.
(§8) The conjugate 2 and the free MMAE were tested in presence of the MMP-2 inhibitor cis-9-octadecenoyl-N-hydroxylamine (Merck) dissolved in DMSO ([You et al., 2018]). The three αVβ3 integrin and MMP-2 overexpressing cancer cell lines (U87MG, SK-MEL-28, […]) were seeded with serum containing medium ([Ellijimi et al., 2018]; [Shim et al., 2019]) and, after 8 h, were washed-out. Then, 100 µL per well of MMP-2 inhibitor (10 µM final concentration) were added and cells were incubated for 16 h, prior to the treatment. Later, the conjugate 2 and free MMAE were dissolved in 10% serum containing medium and added to reach the same concentrations evaluated in the previous test in a final volume of 100 µL per well and incubated (5% serum final) continuously for 72 h of the treatment. The experiments were performed in triplicate.

The next data set deals with SK-OV-3 cells. The data set is described as above. It is filed as cell-based, human. The conditions noted are these: 16 h pre-incubation with MMP-2 inhibitor 10 µM, then 72 h continuous treatment, 5% serum final; average ± SD, triplicate; read-out: IC50 MMP-2 inhibitor + Treatment 72 h SK-OV-3 (αVβ3 +). As for the experimental part:
as §4, §7, §8

Another data set relates to U87MG cells. The description is as above. It is filed as cell-based, human. The conditions noted are these: 16 h pre-incubation with MMP-2 inhibitor 10 µM, then 72 h continuous treatment, 5% serum final; average ± SD, triplicate; read-out: IC50 MMP-2 inhibitor + Treatment 72 h U87MG (αVβ3 +). As for the experimental part: as §4, §7, §8
The subject of data set [5] is SK-OV-3 human ovarian cancer cells. Nature of the data set: In vitro antiproliferative activity, MTT, 72 h continuous treatment (no-washout). The conditions noted are these: MTT, 72 h continuous treatment, no washout, 5% serum final; triplicate, repeated three times. It is filed as cell-based. As for the experimental part: as §1, §2, §3, §4, §5
Data set [6] relates to A549 human lung cancer cells. The data set is described as above. It is filed as cell-based. The conditions noted are these: MTT, 72 h continuous treatment, no washout, 5% serum final; αVβ3 low expressing line; triplicate, repeated three times. As for the experimental part: as §1, §2, §3, §4, §5
Data set [7] concerns U87MG human malignant glioma cells. The data set is described as above. It is filed as cell-based. The conditions noted are these: MTT, 72 h continuous treatment, no washout, 5% serum final; triplicate, repeated three times. As for the experimental part: as §1, §2
(§9) […] The control wells were treated only with serum free medium (5% serum final).
as §4, §5

The subject of data set [8] is SK-MEL-28 human melanoma cells. The data set is described as above. The conditions noted are these: MTT, 72 h continuous treatment, no washout, 5% serum final; triplicate, repeated three times. It is filed as cell-based. The procedure: as §1, §2, §9, §4, §5
In data set [9] the target is T1, recombinant human MMP-2 protein (Active) (Homo sapiens, UniProt P08253).
T1 construct: with the active form of MMP-2 enzyme; purchased Abcam ab81550
T1 sequence (P08253 110-660): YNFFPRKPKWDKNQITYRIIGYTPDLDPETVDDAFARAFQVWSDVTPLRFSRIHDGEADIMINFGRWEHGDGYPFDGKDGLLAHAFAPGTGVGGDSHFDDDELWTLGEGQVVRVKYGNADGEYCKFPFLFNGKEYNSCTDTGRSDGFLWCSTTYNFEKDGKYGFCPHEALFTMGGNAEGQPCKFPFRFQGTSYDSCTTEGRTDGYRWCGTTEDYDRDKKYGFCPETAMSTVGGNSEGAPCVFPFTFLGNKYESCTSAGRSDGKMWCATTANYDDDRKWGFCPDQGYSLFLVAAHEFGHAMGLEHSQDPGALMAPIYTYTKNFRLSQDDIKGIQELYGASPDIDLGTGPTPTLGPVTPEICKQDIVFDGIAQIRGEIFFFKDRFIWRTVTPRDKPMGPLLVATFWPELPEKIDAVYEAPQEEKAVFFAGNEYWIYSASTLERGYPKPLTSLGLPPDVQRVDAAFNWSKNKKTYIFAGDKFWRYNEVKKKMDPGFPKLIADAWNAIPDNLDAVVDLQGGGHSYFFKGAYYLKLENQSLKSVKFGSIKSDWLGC
Nature of the data set: Enzymatic-cleavage assay with MMP-2 enzyme. It is filed as in vitro ADME. The conditions noted are these: recombinant human MMP-2, enzyme:linker 1:20 (w/w), Tris·HCl buffer pH 7.4, 37 °C, 74 h, HPLC-UV 254 nm, by retention time vs free MMAE. As for the experimental part: The cleavage test with the MMP-2 enzyme was performed using recombinant human MMP-2 protein (Active) purchased from Abcam (ab81550). A buffer solution Tris∙HCl (50 mM), NaCl (0.2 M), CaCl2 (10 mM), Brij-35 (0.05%), ZnSO4 (50 µM), pH 7.4 was prepared in accordance with the literature ([Tauro et al., 2008]). A solution of EDTA (50 mM) was prepared for stopping the MMP-2 activity. For the assay, the MMP-2 enzyme (10 µg) was diluted with 100 µL Milli-Q Water, accordingly to the data sheet. A solution of the H2N-GPLG-PABC-MMAE 7 was prepared (0.105 mg in 0.881 mL of buffer solution). To start the assay, 25 µL MMP-2 enzyme was added to 475 µL of the linker solution to have 1:20 (w/w) enzyme: linker ratio. […] The resulting solution was diluted with 180 µL Milli-Q Water and 70 µL of acetonitrile (MeCN) and analyzed by analytical HPLC SHIMADZU LC-20AP equipped with diode array UV detector and LiChrosorb RP-18 (5 μm) C18 column. […]
Samples were analyzed using analytical HPLC SHIMADZU LC -20AP equipped with diode array UV detector and LiChrosorb® RP-18 (5 μm) C18 column, flow rate: 1 mL/min., gradient: from 90% (H2O + 0.1% TFA) / 10% (MeCN) to 40% (H2O + 0.1% TFA) / 60% (MeCN) in 16 min. to 10% (H2O + 0.1% TFA) / 90% (MeCN) in 9 min. to 10% (H2O + 0.1% TFA) / 90% (MeCN) in 5 min. to 90% (H2O + 0.1% TFA) / 10% (MeCN) in 5 min. to 90% (H2O + 0.1% TFA) / 10% (MeCN) in 5 min. […]

Take `N=C(N)NCCC[C@@H]1NC(=O)CNC(=O)C[C@@H](C(=O)O)NC(=O)C[C@H]2NC(=O)[C@H](CNC1=O)N(Cc1ccccc1)C2=O` [compound 10, cyclo[DKP-isoDGR], reference compound]: the IC50 in data set [1], in [2], in data set [3] and in [4] was over 20000 nM throughout.
`CC[C@H](C)[C@@H]([C@@H](CC(=O)N1CCC[C@H]1[C@H](OC)[C@@H](C)C(=O)N[C@H](C)[C@@H](O)c1ccccc1)OC)N(C)C(=O)[C@@H](NC(=O)[C@@H](NC)C(C)C)C(C)C` [MMAE, monomethyl auristatin E] (H-[NMeV]V[Dil][Dolaproine]-X1): the IC50 with SK-MEL-28 cells is 1.9 ± 0.778 nM; with SK-OV-3 cells, 0.0334 ± 0.0119 nM; in the data set with U87MG cells, 0.374 ± 0.132 nM; in [5], 0.03 nM and 0.0307 nM; in data set [6], 0.0688 ± 0.0021 nM; in data set [1] it was 2130 ± 216 nM. Further, the concentration for half-maximal inhibition (IC50) in data set [2] was found to be 206 ± 23.6 nM; in [3] it was 266 ± 16.1 nM; in data set [4] it was 1400 ± 137 nM; in data set [7] it was 0.225 ± 0.0126 nM; in [8], 2.39 ± 0.395 nM. Moreover, the “IC50 72h SK-MEL-28” value in data set [8] is “very low nanomolar range”.
Regarding `CCCCCCCC/C=C\CCCCCCCC(=O)NO` [MMP-2 Inhibitor, cis-9-octadecenoyl-N-hydroxylamide], the IC50 in the data set on SK-MEL-28 cells, in the data set on SK-OV-3 cells and in the data set on U87MG cells was over 20000 nM in each case.
As to `CC[C@H](C)[C@@H]([C@@H](CC(=O)N1CCC[C@H]1[C@H](OC)[C@@H](C)C(=O)N[C@H](C)[C@@H](O)c1ccccc1)OC)N(C)C(=O)[C@@H](NC(=O)[C@H](C(C)C)N(C)C(=O)OCc1ccc(NC(=O)CNC(=O)[C@H](CC(C)C)NC(=O)[C@@H]2CCCN2C(=O)CN)cc1)C(C)C` [compound 7, H2N-GPLG-PABC-MMAE] (H-GPLG[PABC][NMeV]V[Dil][Dolaproine]-X1), the “release of free MMAE on incubation with active MMP-2” value in data set [9] is given as “not observed”.

Values taken from article PMC10363981, “Optimizing the enzymatic release of MMAE from isoDGR-based small molecule drug conjugate by incorporation of a GPLG-PABC enzymatically cleavable linker” (Frontiers in Pharmacology, 2023).
